Experimental data taken from ChEMBL document CHEMBL3244225, “Synthesis and biological activity of some vinyl-substituted 2-nitroimidazoles” (J Med Chem, 1977).
Values after ≈ are worked out from the molar mass of the structure shown. Active and inactive are the calls of the source. The calls are words filed in the database; no cut-off is given here.

Legend:
[1] = system: Staphylococcus aureus; experiment: Antimicrobial activity against Staphylococcus aureus Tour by tube dilution method; format: functional
[2] = system: Streptococcus pyogenes; experiment: Antimicrobial activity against Streptococcus haemolyticus C 203 by tube dilution method; format: functional
[3] = system: Streptococcus pneumoniae; experiment: Antimicrobial activity against Diplococcus pneumoniae UC41 by tube dilution method; format: functional
[4] = system: Clostridium perfringens; experiment: Antimicrobial activity against Clostridium perfringens ISS 30543 by tube dilution method; format: functional
[5] = system: Proteus vulgaris; experiment: Antimicrobial activity against Proteus vulgaris X19 H ATCC 881 by tube dilution method; format: functional
[6] = system: Escherichia coli; experiment: Antimicrobial activity against Escherichia coli SKF 12140 by tube dilution method; format: functional
[7] = system: Shigella sonnei; experiment: Antimicrobial activity against Shigella sonnei ATCC 9290 by tube dilution method; format: functional
[8] = system: Salmonella typhimurium; experiment: Antimicrobial activity against Salmonella typhimurium Kh by tube dilution method; format: functional, Salmonella enterica subsp. enterica serovar Typhimurium; conditions: Salmonella enterica
[9] = system: Klebsiella pneumoniae; experiment: Antimicrobial activity against Klebsiella pneumoniae I.S.M. by tube dilution method; format: functional
[10] = system: Pseudomonas aeruginosa; experiment: Antimicrobial activity against Pseudomonas aeruginosa ATCC 10145 by tube dilution method; format: functional
[11] = system: Candida albicans; experiment: Antimicrobial activity against Candida albicans SKF 2270 by tube dilution method; format: functional
[12] = system: Trichophyton mentagrophytes; experiment: Antimicrobial activity against Trichophyton mentagrophytes SKF 17410 by tube dilution method; format: functional
[13] = system: Mycobacterium tuberculosis; experiment: Antimicrobial activity against Mycobacterium tuberculosis ATCC 9360 by tube dilution method; format: functional
[14] = system: Mycoplasmoides gallisepticum; experiment: Antimicrobial activity against Mycoplasma gallisepticum H21 C.Z.B. by tube dilution method; format: functional
[15] = system: Trichomonas vaginalis; experiment: Trichomonastatic activity against Trichomonas vaginalis by tube dilution method; format: functional
[16] = system: Trichomonas vaginalis; experiment: Trichomonacidal activity against Trichomonas vaginalis by tube dilution method; format: functional
[17] = system: Escherichia coli; experiment: Antimicrobial activity against Escherichia coli infected in mouse at 250 mg/kg, po; format: functional, organism-based; parameters: dose 250 mg/kg
[18] = system: Escherichia coli; experiment: Antimicrobial activity against Escherichia coli infected in mouse at 250 mg/kg, sc; format: functional, organism-based; parameters: dose 250 mg/kg
[19] = Toxicity in po dosed mouse infected with Escherichia coli; format: organism-based; conditions: in vivo
[20] = Toxicity in sc dosed mouse infected with Escherichia coli; format: organism-based; conditions: in vivo
[21] = system: Trichomonas vaginalis; experiment: Ratio of metronidazole ED50 to compound ED50 for Trichomonas vaginalis infected in sc dosed mouse; format: functional
[22] = Toxicity in po dosed mouse infected with Trichomonas vaginalis; format: organism-based; conditions: in vivo
[23] = system: Staphylococcus aureus; experiment: Antimicrobial activity against Staphylococcus aureus infected in mouse at 200 mg/kg, po; format: functional, organism-based; parameters: dose 200 mg/kg
[24] = system: Staphylococcus aureus; experiment: Antimicrobial activity against Staphylococcus aureus infected in mouse at 200 mg/kg, sc; format: functional, organism-based; parameters: dose 200 mg/kg
[25] = system: Escherichia coli; experiment: Antimicrobial activity against Escherichia coli infected in mouse at 300 mg/kg, po; format: functional, organism-based; parameters: dose 300 mg/kg
[26] = system: Escherichia coli; experiment: Antimicrobial activity against Escherichia coli infected in mouse at 200 mg/kg, sc; format: functional, organism-based; parameters: dose 200 mg/kg

SMILES | MIC [1] [µg/mL] | MIC [2] [µg/mL] | MIC [3] [µg/mL] | MIC [4] [µg/mL] | MIC [5] [µg/mL] | MIC [6] [µg/mL] | MIC [7] [µg/mL] | MIC [8] [µg/mL] | MIC [9] [µg/mL] | MIC [10] [µg/mL] | MIC [11] [µg/mL] | MIC [12] [µg/mL] | MIC [13] [µg/mL] | MIC [14] [µg/mL] | MIC [15] [µg/mL] | MIC [16] [µg/mL] | LD50 [19] [mg/kg] | LD50 [20] [mg/kg] | Ratio ED50 [21] | LD50 [22] [mg/kg] | other results
CC(/C=C/c1cnc([N+](=O)[O-])n1C)=[N+](\C)[O-] | 50 (≈ 223 µM) | 100 (≈ 446 µM) | 50 (≈ 223 µM) | 10 (≈ 44.6 µM) | 100 (≈ 446 µM) | 50 (≈ 223 µM) | 100 (≈ 446 µM) | 100 (≈ 446 µM) | 100 (≈ 446 µM) | > 100 | > 100 | > 100 | > 100 | 50 (≈ 223 µM) | 50 (≈ 223 µM) | 100 (≈ 446 µM) | 700 | 700 | 2.6 | 700 | Activity [17]: inactive; Activity [18]: inactive
Cn1c(/C=C/C=[N+](/C)[O-])cnc1[N+](=O)[O-] | 10 (≈ 47.6 µM) | 20 (≈ 95.2 µM) | 100 (≈ 476 µM) | 5 (≈ 23.8 µM) | > 100 | 50 (≈ 238 µM) | 20 (≈ 95.2 µM) | 20 (≈ 95.2 µM) | 20 (≈ 95.2 µM) | > 100 | > 100 | > 100 | 100 (≈ 476 µM) | 10 (≈ 47.6 µM) | > 100 | – | 700 | 700 | – | – | Activity [23]: Active; Activity [24]: Active
Cn1c(/C=C/C=O)cnc1[N+](=O)[O-] | 20 (≈ 110 µM) | 10 (≈ 55.2 µM) | 5 (≈ 27.6 µM) | 20 (≈ 110 µM) | 20 (≈ 110 µM) | 5 (≈ 27.6 µM) | 20 (≈ 110 µM) | 5 (≈ 27.6 µM) | 10 (≈ 55.2 µM) | 100 (≈ 552 µM) | > 100 | 10 (≈ 55.2 µM) | 50 (≈ 276 µM) | 50 (≈ 276 µM) | 20 (≈ 110 µM) | 50 (≈ 276 µM) | – | – | – | – | Activity [25]: inactive
CC(=O)/C=C/c1cnc([N+](=O)[O-])n1C | 50 (≈ 256 µM) | 100 (≈ 512 µM) | 100 (≈ 512 µM) | 5 (≈ 25.6 µM) | 100 (≈ 512 µM) | 20 (≈ 102 µM) | 50 (≈ 256 µM) | 50 (≈ 256 µM) | 100 (≈ 512 µM) | > 100 | > 100 | 100 (≈ 512 µM) | 20 (≈ 102 µM) | 50 (≈ 256 µM) | 10 (≈ 51.2 µM) | 50 (≈ 256 µM) | – | – | 1.1 | 800 | Activity [26]: inactive
